{"source": "patent US20260049289A1", "about": "“ARRAY PLATFORM FOR HIGH-THROUGHPUT ORGANOID PROFILING” (CZ Biohub SF, LLC, priority 2022, published 2026)", "tested_on": "patient-derived pancreatic ductal adenocarcinoma (PDAC) organoids", "assay": "Drug testing of patient-derived PDAC organoids treated with gemcitabine in the microwell platform", "type": "cell-based, human", "settings": "PDAC organoids derived from the same parental cells, imaging (FIG. 6)", "excerpt": "FIG. 6: Representative drug evaluation of patient-derived pancreatic ductal adenocarcinoma organoids treated with gemcitabine. Upper panel, organoids sensitive to gemcitabine; lower panel, organoids resistance to gemcitabine. Organoids are a desirable choice for drug screening studies because they retain 3D cellular architecture and therefore recapitulate physiological conditions to a higher degree than traditional cell lines. […] Organoids sensitive to gemcitabine (FIG. 6, top panel) were growth-stunted and/or dissociated compared to resistant organoids (FIG. 6, bottom panel). Whole organoids that display resistance to a drug, can be retrieved and further evaluated, e.g., for genomic changes and/or changes in RNA expression profiles, to evaluate mechanisms of drug resistance, for example, innate versus acquired resistance.", "data": [{"compound": "Nc1ccn([C@@H]2O[C@H](CO)[C@@H](O)C2(F)F)c(=O)n1", "note": "[gemcitabine]", "values": [{"measurement": "observed drug response of single organoids (growth, dissociation)", "value": "heterogeneity in observed drug response"}]}]}
